Measurements taken from US10918746B2, “Radioactive compositions and methods for their therapeutic use” (IsoTherapeutics Group LLC, priority 2011, dated 2021).

Experiments:
[1] = Biolocalization after injection into synovial cavity of right hind knee; assay type: in vivo, Sprague Dawley rats; conditions: Rats
Excerpt: One method of this invention uses a therapeutically-effective quantity of the compositions of Formula (II) and Formula (III), administered in one or more locations into or near a Non-intracavitary, undesirable tissue mass (e.g. cancer) in an animal or human in need of such treatment. Another method of this invention uses a therapeutically-effective quantity of these hydroxy carbonates, administered in one or more locations into or near the synovial cavity to treat arthritis. In either method the treatment is such that a major portion of the dose remains at the site of injection (defined as greater than about 90% of the dose remaining at the site after two half-lives of the radioisotopes; more preferably greater than about 95% of the dose remaining at the site after 2 half-lives of the radioactive isotopes; and most preferably greater than about 98% of the dose remaining at the site after 2 half-lives of the radioisotopes) as determined by biolocalization data obtained by dissection of an animal (e.g. BALB/c mice or Sprague Dawley rats); wherein the values are corrected for radioactive decay. It is also important to recognize that deposition of radioactivity in non-target organs and tissues can impact the safety and efficacy of the treatment. Ideally, in mice, less than about 1% remaining in the carcass (including the contralateral femur) and less than about 0.2% in the liver plus the kidneys and, in rats, less than about 1% in the skeletal structure and less than about 0.2% in the liver plus the kidneys. In the case of mice (injection into the gastrocnemius muscle of the right hind leg is used as a model for Non-Intracavitary tumors), all tissues, including the whole carcass, and bedding were collected such that 100% of the radioactivity was accounted for. In the case of rats (injections were directly into the synovial cavity), the size of the animal precluded counting the entire carcass. Therefore samples of blood, muscle, and bone (contralateral femur) were collected and the total masses of those tissues were calculated. The tissue masses were calculated based on rat body weight using equations fitted to data in the literature [Henry H. Donaldson, The Rat: Reference Tables and Data for the Albino Rat and the Norway Rat, (1915)].
Six male Sprague Dawley rats, under Isoflurane anesthesia, were each injected with 20 μL of the Composition prepared according to the procedure of Example 1 into the synovial cavity of the right hind knee using a ⅓ cc insulin syringe. The dose was deposited into the cavity via needle insertion through the skin. The rats were individually housed in cages with absorbent paper under a wire mesh bottom. […]
Due to the size of the animals, the carcass was not collected and measured as was done for the mice. The % ID in the skeletal structure, muscular structure and blood in the body were calculated from the activity in samples of those tissues (left femur, left thigh, blood) and rat body weight using equations fitted to data in the literature as was described earlier.
Samples were counted for radioactivity on a PerkinElmer Wizard automated NaI well detector. The data, shown below in Table 1, indicate the average percent injected dose in each tissue/sample.

[2] = Biolocalization two hours after delivery into a drilled hole in the femur; assay type: in vivo, Sprague Dawley rat; conditions: rat femur
Experimental: Ho-166 in 0.1M HCl was obtained from MURR. The pH was measured with pH paper showing a pH of about 1. A miniature drill was used to create a hole in the femur of an anesthetized Sprague Dawley rat. A miniature pump was used to deliver 3 μL of Ho-166 solution into the hole created by the drill. Two hours after the injection of the dose the rat was sacrificed and dissected. The amount of activity found in the site of injection was 5% of the injected dose. 52% of the dose was found in the liver and 23% of the dose was found in the rest of the bone.
A miniature drill was used to create a hole in the femur of an anesthetized Sprague Dawley rat. A miniature pump was used to deliver 2 μL of Sm-153-DOTMP solution into the hole created by the drill. Two hours after the injection of the dose the rat was sacrificed and dissected. The amount of activity found in the site of injection was 9% of the injected dose and about 20% was found in the rest of the bone. An average of 65% of the injected dose was found in the urine.

O=C([O-])CN(CCN(CC(=O)[O-])CC(=O)[O-])CCN(CC(=O)[O-])CC(=O)[O-].[117Sn+4].[H+] [Example K]
Average % ID, Calculated Blood ([1]; 14 days): 0.0 % ID
Average % ID, Calculated Muscle ([1]; 14 days): 0.3 % ID
Average % ID, Calculated Skeleton ([1]; 14 days): 28.0 % ID
Average % ID, Heart ([1]; 14 days): 0.0 % ID
Average % ID, Kidney ([1]; 14 days): 0.4 % ID
Average % ID, Leg (injection site) ([1]; 14 days): 31.2 % ID
Average % ID, Lg. Intestine ([1]; 14 days): 0.0 % ID
Average % ID, Liver ([1]; 14 days): 0.4 % ID
Average % ID, Lung ([1]; 14 days): 0.0 % ID
Average % ID, Sm. Intestine ([1]; 14 days): 0.0 % ID
Average % ID, Spleen ([1]; 14 days): 0.0 % ID
Average % ID, Stomach ([1]; 14 days): 0.0 % ID
Average % ID, Urine/Feces ([1]; 14 days): 39.5 % ID
Average % ID, Calculated Blood ([1]; 28 days): 0.0 % ID
Average % ID, Calculated Muscle ([1]; 28 days): 0.1 % ID
Average % ID, Calculated Skeleton ([1]; 28 days): 30.0 % ID
Average % ID, Heart ([1]; 28 days): 0.0 % ID
Average % ID, Kidney ([1]; 28 days): 0.3 % ID
Average % ID, Leg (injection site) ([1]; 28 days): 22.6 % ID
Average % ID, Lg. Intestine ([1]; 28 days): 0.0 % ID
Average % ID, Liver ([1]; 28 days): 0.4 % ID
Average % ID, Lung ([1]; 28 days): 0.0 % ID
Average % ID, Sm. Intestine ([1]; 28 days): 0.0 % ID
Average % ID, Spleen ([1]; 28 days): 0.0 % ID
Average % ID, Stomach ([1]; 28 days): 0.0 % ID
Average % ID, Urine/Feces ([1]; 28 days): 46.6 % ID

O=P([O-])(O)CN1CCN(CP(=O)([O-])O)CCN(CP(=O)(O)O)CCN(CP(=O)([O-])O)CC1.[153Sm+3] [Sm-153-DOTMP]
amount of activity found in the site of injection [2]: 9 % of the injected dose
dose found in the rest of the bone ([2]; two hours after injection): about 20%
injected dose found in the urine ([2]; two hours after injection, average): 65 % of the injected dose

[166Ho+3].[Cl-].[Cl-].[Cl-] [Example G, Ho-166 Chloride]
amount of activity found in the site of injection [2]: 5 % of the injected dose
dose found in the liver ([2]; two hours after injection): 52 % of the dose
dose found in the rest of the bone ([2]; two hours after injection): 23%
